Here are results for one compound from patent publication US6231887A, “Pharmaceutical composition for acidic lipophilic compounds in a form of a self-emulsifying formulation” (priority 1998, dated 2001).

Data set [1] can be described thus: Aqueous solubility in buffer. Conditions: buffer of pH 6.5 (close to the pH of the intestine), free acid. Format: physicochemical.
The next data set has as its system retroviral protease. The settings on record: qualitative statement; compounds disclosed in WO 95/30670; cited from earlier work.

On to `CCC[C@@]1(CCc2ccccc2)CC(O)=C([C@H](CC)c2cccc(NS(=O)(=O)c3ccc(C(F)(F)F)cn3)c2)C(=O)O1` [compound of formula I], for which the solubility in data set [1] was approximately 1 µg/mL. The “effectiveness as an inhibitor of retroviral protease” value in the data set on retroviral protease was “especially effective”.
